Test results published in US4031243A, “2-(4-Isobutyl phenyl)butyric acid, salts thereof, and pharmaceutical compositions containing the same” (priority 1975, dated 1977).

Key:
[1] = Analgesic activity: Hot-plate test; format: in vivo; conditions: for Reaction time Half ± SEM: control 103.3 ± 7.9
[2] = Analgesic activity: Tail pinch test in the mouse; format: in vivo; conditions: for ED50: Mus musculus; for Animals Not protected, TOTALS / Animals Protected, TOTALS: all doses (60-240 mg/kg)
Excerpt: Analgesic activity: Tail pinch test in the mouse Described by F. Haffner in Deutsch. med. […] ED50 in this test represents the effective dose in milligrams per kilogram of body weight that is required to increase the reaction time by a factor of at least 3 over the reaction time of the same animal before the test substance had been administered.

[3] = test system: edema produced by administration of carageenin; test: animal or person; format: in vivo, rat; design: Increment of Edema ± SEM: unit not given here; conditions: for ED50: Rattus norvegicus, lineal regression; for "+" animals, printed in place of increment of edema: rat, in vivo
Excerpt: Antiinflammatory activity: Acute rat paw edema test Described by C. H. Winter, E. A. Risley and G. W. Nuss in a paper entitled "[…]-induced edema in hind paw of the rat as an assay for antiinflammatory drugs", published in Proc. Soc. Exp. Biol. Med., volume 111, page 544 (1962). ED50 in this test represents the effective dose in milligrams per kilogram of body weight that is required to inhibit edema produced by administration of carageenin to the rat.

granulation tissue = test: Antiinflammatory activity: Formation of granulation tissue in the rat; format: in vivo; conditions: oral; for ED50: Rattus norvegicus, 50% inhibition of granulation tissue, lineal regression; for Weight of granulated tissue ± SEM: control 198 ± 3.63, in mg (unit assumed)
Excerpt: Antiinflammatory activity: Formation of granulation tissue in the rat
Described by N. Pisanti, G. Volterra and A. Meli, in a paper entitled "Pharmacological data on a new antiinflammatory agent", published in Il Farmaco(Ed. Scientifica) vol. 38, page 51 (1973).
ED50 in this test represents the effective dose in milligrams per kilogram of body weight that is required to inhibit by an increment of 50% the formulation of granulation tissue in the rat.

Ulcerogenic assay = format: in vivo, rat; conditions: rat, in vivo; dose which produces 50% of the maximum possible score points in one group of rats; lineal regression; read-out: UD50 (the source's name)
Excerpt: (§1) Described by S. Wong, J. F. Gardocki and T. P. Pruss in J. Pharm. Exper.
(§2) UD50 represents the dose in milligrams per kilogram of body weight that is based upon a point scale as follows:
(§3) 3 -- ulceration with craters
(§4) U.S. 50 Half ulcerogenic dose -- dose which produces 50% of the
(§5) maximum possible score points in one group of rats.

mucosa = test: Ulcerogenic assay; format: in vivo, rat; conditions: 20 rats, scale 0 no ulcers to 3 ulceration with craters
Excerpt: as §1, §2, §3, §4, §5

gastric lining = test: General statements on toxicity, gastric tolerance and activity; conditions: capsule, 100 to 300 milligrams, with talcum and magnesium stearate
[4] = Dissolution of capsule in the stomach (statement); format: physicochemical; conditions: 100 to 300 milligrams, with talcum and magnesium stearate
[5] = 144 h, Table 2, oral, administration 6 days
[6] = Table 1, oral, 120 mg/kg, control 14.80 ± 0.94
[7] = Table 1, oral, 180 mg/kg, control 14.80 ± 0.94
[8] = Table 1, oral, 240 mg/kg, control 14.80 ± 0.94
[9] = Table 2, oral, 120 mg/kg, administration 6 days
[10] = Table 2, oral, 120 mg/kg, administration 6 days, control 15.35 ± 0.31
[11] = Table 2, oral, 180 mg/kg, administration 6 days
[12] = Table 2, oral, 180 mg/kg, administration 6 days, control 15.35 ± 0.31
[13] = Table 2, oral, 240 mg/kg, administration 6 days
[14] = Table 2, oral, 240 mg/kg, administration 6 days, control 15.35 ± 0.31
[15] = Table 3, I.P., 120 mg/kg, control 12.50 ± 1.66

CC(=O)Oc1ccccc1C(=O)O [Aspirin, reference compound]
% Increase of Reaction time ([1]; oral, 120 mg/kg): 22.7%
Reaction time Half ± SEM ([1]; oral, 120 mg/kg): 126.8 ± 13.7 s
% Increase of Reaction time ([1]; oral, 180 mg/kg): 57.4%
Reaction time Half ± SEM ([1]; oral, 180 mg/kg): 162.6 ± 8.0 s
% Increase of Reaction time ([1]; oral, 240 mg/kg): 69.5%
Reaction time Half ± SEM ([1]; oral, 240 mg/kg): 175.1 ± 5.9 s
ED50 ([1]; po): 173 mg/kg
ED50 ([2]; po): 115 mg/kg
% Protection ([2]; oral, 60 mg/kg): 13.3%
Animals Not protected ([2]; oral, 60 mg/kg): 13
Animals Protected ([2]; oral, 60 mg/kg): 2
% Protection ([2]; oral, 120 mg/kg): 53.3%
Animals Not protected ([2]; oral, 120 mg/kg): 7
Animals Protected ([2]; oral, 120 mg/kg): 8
% Protection ([2]; oral, 180 mg/kg): 73.3%
Animals Not protected ([2]; oral, 180 mg/kg): 4
Animals Protected ([2]; oral, 180 mg/kg): 11
% Protection ([2]; oral, 240 mg/kg): 93.3%
Animals Not protected ([2]; oral, 240 mg/kg): 1
Animals Protected ([2]; oral, 240 mg/kg): 14
Animals Not protected, TOTALS ([2]; oral): 25
Animals Protected, TOTALS ([2]; oral): 35

CCCCC1C(=O)N(c2ccccc2)N(c2ccccc2)C1=O [Phenylbutazone, reference compound]
ED50 [3, 5]: 177 mg/kg
ED50 ([3]; Table 1, oral): 77.1 mg/kg
% Inhibition ([3]; Table 1, oral, 120 mg/kg): 56.08%
Increment of Edema ± SEM [3, 6]: 6.50 ± 1.02
% Inhibition ([3]; Table 1, oral, 180 mg/kg): 64.86%
Increment of Edema ± SEM [3, 7]: 5.20 ± 0.41
% Inhibition ([3]; Table 1, oral, 240 mg/kg): 70.94%
Increment of Edema ± SEM [3, 8]: 4.30 ± 0.89
% Inhibition [3, 9]: 34.85%
Increment of Edema ± SEM [3, 10]: 10.00 ± 0.73
% Inhibition [3, 11]: 42.28%
Increment of Edema ± SEM [3, 12]: 8.86 ± 0.36
% Inhibition [3, 13]: 69.64%
Increment of Edema ± SEM [3, 14]: 4.66 ± 0.54
% Inhibition ([3]; Table 3, I.P., 120 mg/kg): 45.36%
Increment of Edema ± SEM [3, 15]: 6.83 ± 0.94
"+" animals, printed in place of increment of edema ([3]; ip, 240 mg/kg): + four animals
"+" animals, printed in place of increment of edema ([3]; ip, 360 mg/kg): + five animals
ED50 (granulation tissue): 264 mg/kg
% Inhibition (granulation tissue; 120 mg/kg): 15.65%
Weight of granulated tissue ± SEM (granulation tissue; 120 mg/kg): 167 ± 8.25
% Inhibition (granulation tissue; 180 mg/kg): 35.35%
% Inhibition (granulation tissue; 240 mg/kg): 44.94%
Weight of granulated tissue ± SEM (granulation tissue; 240 mg/kg): 109 ± 8.77
TD50 (Ulcerogenic assay): 226 mg/kg
Point score (mucosa; 60 mg/kg/day): 8
Point score (mucosa; 120 mg/kg/day): 17
Point score (mucosa; 240 mg/kg/day): 32

CCC(C(=O)[O-])c1ccc(CC(C)C)cc1.[Na+] (centres unmarked)
gastric upset or irritation (gastric lining): without producing a gastric upset or irritation
dissolution in the stomach [4]: dissolves well in the stomach

CCC(C(=O)O)c1ccc(CC(C)C)cc1 (centres unmarked) [2-(4-Isobutylphenyl)butyric acid, 2-(4-isobutylphenyl) butyric acid]
ED50 [3, 5]: 204 mg/kg
ED50 ([3]; ip, Table 3, I.P.): 133 mg/kg
ED50 ([3]; Table 1, oral): 116 mg/kg
% Inhibition ([3]; Table 1, oral, 120 mg/kg): 51.01%
Increment of Edema ± SEM [3, 6]: 7.25 ± 1.00
% Inhibition ([3]; Table 1, oral, 180 mg/kg): 58.10%
Increment of Edema ± SEM [3, 7]: 6.20 ± 0.84
% Inhibition ([3]; Table 1, oral, 240 mg/kg): 66.21%
Increment of Edema ± SEM [3, 8]: 5.00 ± 0.97
% Inhibition [3, 9]: 24.03%
Increment of Edema ± SEM [3, 10]: 11.66 ± 0.67
% Inhibition [3, 11]: 40.97%
Increment of Edema ± SEM [3, 12]: 9.06 ± 0.39
% Inhibition [3, 13]: 60.06%
Increment of Edema ± SEM [3, 14]: 6.13 ± 0.35
% Inhibition ([3]; Table 3, I.P., 120 mg/kg): 49.36%
Increment of Edema ± SEM [3, 15]: 6.33 ± 0.88
% Inhibition ([3]; Table 3, I.P., 240 mg/kg): 64.00%
Increment of Edema ± SEM ([3]; Table 3, I.P., 240 mg/kg, control 12.50 ± 1.66): 4.50 ± 1.05
% Inhibition ([3]; Table 3, I.P., 360 mg/kg): 92.96%
Increment of Edema ± SEM ([3]; Table 3, I.P., 360 mg/kg, control 12.50 ± 1.66): 0.88 ± 0.26
ED50 (granulation tissue): 252 mg/kg
% Inhibition (granulation tissue; 120 mg/kg): 11.11%
Weight of granulated tissue ± SEM (granulation tissue; 120 mg/kg): 176 ± 13.09
% Inhibition (granulation tissue; 180 mg/kg): 34.34%
Weight of granulated tissue ± SEM (granulation tissue; 180 mg/kg): 130 ± 8.54
% Inhibition (granulation tissue; 240 mg/kg): 46.46%
Weight of granulated tissue ± SEM (granulation tissue; 240 mg/kg): 106 ± 9.97
% Increase of Reaction time ([1]; oral, 60 mg/kg): 7.0%
Reaction time Half ± SEM ([1]; oral, 60 mg/kg): 110.6 ± 7.0 s
% Increase of Reaction time ([1]; oral, 120 mg/kg): 35.0%
Reaction time Half ± SEM ([1]; oral, 120 mg/kg): 139.5 ± 10.7 s
% Increase of Reaction time ([1]; oral, 180 mg/kg): 37.0%
Reaction time Half ± SEM ([1]; oral, 180 mg/kg): 142.3 ± 7.6 s
% Increase of Reaction time ([1]; oral, 240 mg/kg): 78.4%
Reaction time Half ± SEM ([1]; oral, 240 mg/kg): 184.3 ± 13.1 s
ED50 ([1]; oral, increase by 50% of reaction time, lineal regression, read-out: ED50): 162 mg/kg
ED50 ([2]; oral, reaction time increased by factor of at least 3, lineal regression, read-out: ED50): 118 mg/kg
% Protection ([2]; oral, 60 mg/kg): 15%
Animals Not protected ([2]; oral, 60 mg/kg): 17
Animals Protected ([2]; oral, 60 mg/kg): 3
% Protection ([2]; oral, 120 mg/kg): 50%
Animals Not protected ([2]; oral, 120 mg/kg): 10
Animals Protected ([2]; oral, 120 mg/kg): 10
% Protection ([2]; oral, 180 mg/kg): 70%
Animals Not protected ([2]; oral, 180 mg/kg): 6
Animals Protected ([2]; oral, 180 mg/kg): 14
% Protection ([2]; oral, 240 mg/kg): 90%
Animals Not protected ([2]; oral, 240 mg/kg): 2
Animals Protected ([2]; oral, 240 mg/kg): 18
Animals Not protected, TOTALS ([2]; oral): 35
Animals Protected, TOTALS ([2]; oral): 45
Point score (mucosa; 60 mg/kg/day): 2
Point score (mucosa; 120 mg/kg/day): 7
Point score (mucosa; 240 mg/kg/day): 14
